# Reference: US7709482B2, “Polycyclic heteroaryl substituted triazoles useful as Axl inhibitors” (Rigel Pharmaceuticals, Inc., priority 2006, dated 2010)
# Where two headings read alike, the source gives them in different places.
# Molecular target: T1, Axl (Homo sapiens, UniProt P30530)
# T1 construct: endogenous in cells; host or cells: HeLa cells
# T1 sequence (P30530 26-894): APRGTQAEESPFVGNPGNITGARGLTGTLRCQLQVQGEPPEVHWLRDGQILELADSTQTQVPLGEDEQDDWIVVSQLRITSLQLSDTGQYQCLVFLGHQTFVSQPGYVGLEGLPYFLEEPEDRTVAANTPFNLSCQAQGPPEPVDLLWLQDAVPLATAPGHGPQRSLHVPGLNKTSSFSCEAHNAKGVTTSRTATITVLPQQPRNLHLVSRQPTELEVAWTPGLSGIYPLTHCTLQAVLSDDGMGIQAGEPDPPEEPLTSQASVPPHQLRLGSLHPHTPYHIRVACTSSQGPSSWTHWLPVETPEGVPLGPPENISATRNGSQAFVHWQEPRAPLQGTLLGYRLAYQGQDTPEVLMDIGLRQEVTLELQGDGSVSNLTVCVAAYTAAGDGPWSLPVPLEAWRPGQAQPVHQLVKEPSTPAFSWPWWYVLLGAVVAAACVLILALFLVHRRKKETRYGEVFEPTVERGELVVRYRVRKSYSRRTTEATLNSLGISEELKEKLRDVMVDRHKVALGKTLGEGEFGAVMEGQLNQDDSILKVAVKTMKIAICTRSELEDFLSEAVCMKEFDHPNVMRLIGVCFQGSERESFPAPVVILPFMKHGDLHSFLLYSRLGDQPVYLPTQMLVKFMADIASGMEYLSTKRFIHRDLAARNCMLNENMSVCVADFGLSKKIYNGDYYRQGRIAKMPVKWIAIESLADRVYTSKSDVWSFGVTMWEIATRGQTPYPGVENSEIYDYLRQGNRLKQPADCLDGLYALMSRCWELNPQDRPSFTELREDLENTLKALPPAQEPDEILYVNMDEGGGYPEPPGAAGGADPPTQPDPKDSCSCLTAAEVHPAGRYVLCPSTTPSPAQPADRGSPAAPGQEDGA
# Test: Phospho-Akt In-Cell Western Assay (inhibition of Axl activity after Axl-antibody cross-linking)
# Type: cell-based
# Method in brief: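 HeLa cells on poly-L-lysine, starved 24 h in 0.5% FCS DMEM with Axl/Fc 500 ng/mL, pre-treated with compound 1 h at 37 °C, then stimulated 5 min by anti-Axl/anti-mouse antibody cross-linking. Fixed cells probed for phospho-Akt with HRP secondary and chemiluminescent detection.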
# [1] = Hela cells, phospho-Akt chemiluminescence normalized to relative cell number, compounds of formula (Ia), Table 1, read-out: IC50
Compound,IC50 [1] [nM],IC50 [nM]
"COc1ccc2c(c1)CCCc1cc(-n3nc(Nc4ccc(OCCN5CCCC5)c(F)c4)nc3N)nnc1-2 [Compound 56, 1-(6,7-dihydro-5H-9-methoxybenzo[6,7]cyclo-hepta[1,2-c]pyridazin-3-yl)-N^3-(3-fluoro-4-(2-(pyrrolidin-1-yl)ethoxy)phenyl)-1H-1,2,4-triazole-3,5-diamine]",1000 to 10000,–
"COc1ccc2c(c1)CCCc1cc(-n3nc(Nc4ccc(N5CCN(C6CCCCC6)CC5)c(F)c4)nc3N)nnc1-2 [Compound 57, 1-(6,7-dihydro-5H-9-methoxybenzo[6,7]cyclo-hepta[1,2-c]pyridazin-3-yl)-N^3-(3-fluoro-4-(4-(cyclohexyl)piperazin-1-yl)phenyl)-1H-1,2,4-triazole-3,5-diamine]",> 20000,–
"CN1CCN(C2CCN(c3ccc(Nc4nc(N)n(-c5cc6c(nn5)-c5ccccc5CCC6)n4)cc3F)CC2)CC1 [Compound 58, 1-(6,7-dihydro-5H-benzo[6,7]cyclohepta[1,2-c]pyridazin-3-yl)-N^3-(3-fluoro-4-(4-(4-methylpiperazin-1-yl)piperidin-1-yl)phenyl)-1H-1,2,4-triazole-3,5-diamine]",< 1000,–
"CC1CCN(C2CCN(c3ccc(Nc4nc(N)n(-c5cc6c(nn5)-c5ccccc5CCC6)n4)cc3F)CC2)CC1 [Compound 59, 1-(6,7-dihydro-5H-benzo[6,7]cyclohepta[1,2-c]pyridazin-3-yl)-N^3-(3-fluoro-4-(4-(4-methylpiperidin-1-yl)piperidin-1-yl)phenyl)-1H-1,2,4-triazole-3,5-diamine]",< 1000,–
"COc1cc2c(cc1OC)-c1nnc(-n3nc(Nc4ccc(N5CCC(N6CCCC6)CC5)c(F)c4)nc3N)cc1CCC2 [Compound 64, 1-(6,7-dihydro-5H-9,10-dimethoxybenzo[6,7]cyclo-hepta[1,2-c]pyridazin-3-yl)-N^3-(3-fluoro-4-(4-pyrrolidin-1-yl-piperidin-1-yl)phenyl)-1H-1,2,4-triazole-3,5-diamine]",1000 to 10000,–
"COc1cc2c(c(OC)c1OC)-c1nnc(-n3nc(Nc4ccc(N5CCC(N6CCCC6)CC5)c(F)c4)nc3N)cc1CCC2 [Compound 65, 1-(6,7-dihydro-5H-9,10,11-trimethoxybenzo[6,7]cyclo-hepta[1,2-c]pyridazin-3-yl)-N^3-(3-fluoro-4-(4-pyrrolidin-1-yl-piperidin-1-yl)phenyl)-1H-1,2,4-triazole-3,5-diamine]",< 1000,–
"CN1CC2CN(c3ccc(Nc4nc(N)n(-c5cc6c(nn5)-c5ccccc5CCC6)n4)cc3F)CC2C1 (stereo not shown) [Compound 66, 1-(6,7-dihydro-5H-benzo[6,7]cyclohepta[1,2-c]pyridazin-3-yl)-N^3-(3-fluoro-4-(5-methyloctahydro-pyrrolo[3,4-c]pyrrolyl)phenyl)-1H-1,2,4-triazole-3,5-diamine]",< 1000,–
"CN1CCC(C2CCN(c3ccc(Nc4nc(N)n(-c5cc6c(nn5)-c5ccccc5CCC6)n4)cc3F)CC2)CC1 [Compound 70, 1-(6,7-dihydro-5H-benzo[6,7]cyclohepta[1,2-c]pyridazin-3-yl)-N^3-(3-fluoro-4-(4-N-methylpiperidin-4-yl-piperidin-1-yl)phenyl)-1H-1,2,4-triazole-3,5-diamine]",< 1000,–
"Nc1nc(Nc2ccc(N3CCC(N4CCCC4)CC3)c(F)c2)nn1-c1cc2c(nn1)CCCc1ccccc1-2 [Compound 71, 1-(6,7-dihydro-5H-benzo[6,7]cyclohepta[4,5-c]pyridazin-2-yl)-N^3-(3-fluoro-4-(4-(pyrrolidinyl)piperidinyl)-phenyl)-1H-1,2,4-triazole-3,5-diamine]",< 1000,–
"CCCN1CC2CN(c3ccc(Nc4nc(N)n(-c5cc6c(nn5)-c5ccccc5CCC6)n4)cc3F)CC2C1 (stereo not shown) [Compound 72, 1-(6,7-dihydro-5H-benzo[6,7]cyclohepta[1,2-c]pyridazin-3-yl)-N^3-(3-fluoro-4-(5-propyl-octahydropyrrolo[3,4-c]pyrrolyl)phenyl)-1H-1,2,4-triazole-3,5-diamine]",< 1000,–
"Nc1nc(Nc2ccc(N3CC4CN(C5CCCC5)CC4C3)c(F)c2)nn1-c1cc2c(nn1)-c1ccccc1CCC2 (stereo not shown) [Compound 75, 1-(6,7-dihydro-5H-benzo[6,7]cyclohepta[1,2-c]pyridazin-3-yl)-N^3-(3-fluoro-4-(5-cyclopentyloctahydro-pyrrolo[3,4-c]pyrrolyl)phenyl)-1H-1,2,4-triazole-3,5-diamine]",< 1000,–
"Nc1nc(Nc2ccc(N3C4CCC3CC(N3CCCC3)C4)c(F)c2)nn1-c1cc2c(nn1)-c1ccccc1CCC2 (stereo not shown) [Compound 76, 1-(6,7-dihydro-5H-benzo[6,7]cyclohepta[1,2-c]pyridazin-3-yl)-N^3-(3-fluoro-4-(3-(pyrrolidin-1-yl)-8-azabicyclo[3.2.1]oct-8-yl)phenyl)-1H-1,2,4-triazole-3,5-diamine]",–,< 1000
"CC(C)N1CCN(C2CCN(c3ccc(Nc4nc(N)n(-c5cc6c(nn5)-c5ccccc5CCC6)n4)cc3F)CC2)CC1 [Compound 80, 1-(6,7-dihydro-5H-benzo[6,7]cyclohepta[1,2-c]pyridazin-3-yl)-N^3-(3-fluoro-4-(4-(4-isopropylpiperazin-1-yl)piperidin-1-yl)phenyl)-1H-1,2,4-triazole-3,5-diamine]",< 1000,–

# Now from value to molecule, other results behind:
IC50 [1] [nM],Compound,IC50 [nM]
< 1000,"CN(CCOc1ccc(Nc2nc(N)n(-c3cc4c(nn3)-c3ccccc3CCC4)n2)cc1)C1CCCC1 [Compound 60, 1-(6,7-dihydro-5H-benzo[6,7]cyclohepta[1,2-c]pyridazin-3-yl)-N^3-(4-(2-(N-methylcyclopentylamino)-ethoxy)phenyl)-1H-1,2,4-triazole-3,5-diamine]",–
< 1000,"CN(C)C1CCN(c2ccc(Nc3nc(N)n(-c4cc5c(nn4)-c4ccccc4CCC5)n3)cc2F)CC1 [Compound 61, 1-(6,7-dihydro-5H-benzo[6,7]cyclohepta[1,2-c]pyridazin-3-yl)-N^3-(3-fluoro-4-(4-dimethylaminopiperidin-1-yl)phenyl)-1H-1,2,4-triazole-3,5-diamine]",–
< 1000,"Nc1nc(Nc2ccc(N3CCC(N4CCCC4)CC3)c(Cl)c2)nn1-c1cc2c(nn1)-c1ccccc1CCC2 [Compound 62, 1-(6,7-dihydro-5H-benzo[6,7]cyclohepta[1,2-c]pyridazin-3-yl)-N^3-(3-chloro-4-(4-pyrrolidin-1-yl-piperidin-1-yl)phenyl)-1H-1,2,4-triazole-3,5-diamine]",–
1000 to 10000,"Nc1nc(Nc2ccc(N3CCC(N4CCCC4)CC3)c(C(F)(F)F)c2)nn1-c1cc2c(nn1)-c1ccccc1CCC2 [Compound 63, 1-(6,7-dihydro-5H-benzo[6,7]cyclohepta[1,2-c]pyridazin-3-yl)-N^3-(3-trifluoromethyl-4-(4-pyrrolidin-1-yl-piperidin-1-yl)phenyl)-1H-1,2,4-triazole-3,5-diamine]",–
< 1000,"Nc1nc(Nc2ccc(N3CCCC(N4CCCC4)C3)c(F)c2)nn1-c1cc2c(nn1)-c1ccccc1CCC2 (stereo not shown) [Compound 68, 1-(6,7-dihydro-5H-benzo[6,7]cyclohepta[1,2-c]pyridazin-3-yl)-N^3-(3-fluoro-4-(3-pyrrolidin-1-yl-piperidin-1-yl)phenyl)-1H-1,2,4-triazole-3,5-diamine]",–
< 1000,"Nc1nc(Nc2ccc(N3CCCCC(N4CCCC4)C3)c(F)c2)nn1-c1cc2c(nn1)-c1ccccc1CCC2 (stereo not shown) [Compound 69, 1-(6,7-dihydro-5H-benzo[6,7]cyclohepta[1,2-c]pyridazin-3-yl)-N^3-(3-fluoro-4-(3-pyrrolidin-1-yl-azepan-1-yl)phenyl)-1H-1,2,4-triazole-3,5-diamine]",–
< 1000,"Nc1nc(Nc2ccc(N3CCN4CCCCCC4C3)c(F)c2)nn1-c1cc2c(nn1)-c1ccccc1CCC2 (stereo not shown) [Compound 73, 1-(6,7-dihydro-5H-benzo[6,7]cyclohepta[1,2-c]pyridazin-3-yl)-N^3-(3-fluoro-4-(decahydropyrazino[1,2-a]azepin-2-yl)phenyl)-1H-1,2,4-triazole-3,5-diamine]",–
< 1000,"Nc1nc(Nc2ccc(N3CCCC(N4CCCC4)CC3)c(F)c2)nn1-c1cc2c(nn1)-c1ccccc1CCC2 (stereo not shown) [Compound 77, 1-(6,7-dihydro-5H-benzo[6,7]cyclohepta[1,2-c]pyridazin-3-yl)-N^3-(3-fluoro-4-(4-pyrrolidin-1-yl-azepan-1-yl)phenyl)-1H-1,2,4-triazole-3,5-diamine]",–
< 1000,"CN1CCC2CN(c3ccc(Nc4nc(N)n(-c5cc6c(nn5)-c5ccccc5CCC6)n4)cc3F)CC21 (stereo not shown) [Compound 81, 1-(6,7-dihydro-5H-benzo[6,7]cyclohepta[1,2-c]pyridazin-3-yl)-N^3-(3-fluoro-4-(1-methyl-octahydropyrrolo[3,4-b]pyrrol-5-yl)phenyl)-1H-1,2,4-triazole-3,5-diamine]",–
